{"source": "ChEMBL document CHEMBL6153137", "about": "“Design, Synthesis, and Biological Evaluation of Novel Orally Available Covalent CDK12/13 Dual Inhibitors for the Treatment of Tumors” (J Med Chem, 2025)", "key": {"[1]": {"assay": "GSH reactivity assessed as half life to adduct formation at 1 uM by LC-MS/MS analysis", "assay_type": "physicochemical"}, "[2]": {"assay": "Cmax in male Sprague-Dawley rat at 20 mg/kg, po administered once daily via gavage for 28 days", "assay_type": "ADME, organism-based", "conditions": "in vivo, time 28 day"}, "[3]": {"assay": "Toxicity against female Sprague-Dawley rat assessed as effect on sodium level in blood at 7.5 to 30 mg/kg, po administered once daily via gavage for 28 days and measured on day 29", "assay_type": "organism-based", "conditions": "in vivo, 696 h, dose 7.5-30 mg/kg, time 29 day"}, "[4]": {"assay": "Ratio of drug level in tumor to plasma in Balb/c mouse xenografted with human SUM149PT cells at 30 mg/kg, po administered via gavage and measured after 2 hrs", "assay_type": "ADME, organism-based"}, "[5]": {"system": "NCI-H508", "assay": "Antiproliferative activity against human NCI-H508 cells assessed as reduction in cell viability incubated for 7 days by CellTiter-Glo reagent based luminescence analysis", "assay_type": "functional", "conditions": "NCI-H508, 168 h"}, "[6]": {"assay": "AUC(0 to t) in female Sprague-Dawley rat at 15 mg/kg, po administered once daily via gavage for 28 days", "assay_type": "ADME, organism-based", "conditions": "in vivo, 672 h, time 28 day"}, "[7]": {"assay": "Toxicity against male Sprague-Dawley rat assessed as effect on phosphorus level in blood at 10 to 40 mg/kg, po administered once daily via gavage for 28 days and measured on day 29", "assay_type": "organism-based", "conditions": "in vivo, 696 h, dose 10-40 mg/kg, time 29 day"}, "[8]": {"system": "SUM149PT", "assay": "Induction of DNA damage in human SUM149PT cells assessed as increase in gammaH2AX phosphorylation at 250 to 1000 nM incubated for 1 to 24 hrs by western blot analysis", "assay_type": "functional, cell-based", "conditions": "dose 250-1000 nM, time lower 1.0 hrs, time upper […]"}, "[9]": {"assay": "Toxicity against female Sprague-Dawley rat assessed as increase in neutrophils content at 7.5 to 30 mg/kg, po administered once daily via gavage for 28 days and measured on day 29", "assay_type": "organism-based", "conditions": "in vivo, 696 h, dose 7.5-30 mg/kg, time 29 day"}, "[10]": {"assay": "Cmax in female Sprague-Dawley rat at 7.5 mg/kg, po administered once daily via gavage for 28 days", "assay_type": "ADME, organism-based", "conditions": "in vivo, time 28 day"}, "[11]": {"target": "Cyclin-dependent kinase 13/Cyclin-K (Homo sapiens, UniProt Q14004)", "sequence (Q14004 whole entry)": "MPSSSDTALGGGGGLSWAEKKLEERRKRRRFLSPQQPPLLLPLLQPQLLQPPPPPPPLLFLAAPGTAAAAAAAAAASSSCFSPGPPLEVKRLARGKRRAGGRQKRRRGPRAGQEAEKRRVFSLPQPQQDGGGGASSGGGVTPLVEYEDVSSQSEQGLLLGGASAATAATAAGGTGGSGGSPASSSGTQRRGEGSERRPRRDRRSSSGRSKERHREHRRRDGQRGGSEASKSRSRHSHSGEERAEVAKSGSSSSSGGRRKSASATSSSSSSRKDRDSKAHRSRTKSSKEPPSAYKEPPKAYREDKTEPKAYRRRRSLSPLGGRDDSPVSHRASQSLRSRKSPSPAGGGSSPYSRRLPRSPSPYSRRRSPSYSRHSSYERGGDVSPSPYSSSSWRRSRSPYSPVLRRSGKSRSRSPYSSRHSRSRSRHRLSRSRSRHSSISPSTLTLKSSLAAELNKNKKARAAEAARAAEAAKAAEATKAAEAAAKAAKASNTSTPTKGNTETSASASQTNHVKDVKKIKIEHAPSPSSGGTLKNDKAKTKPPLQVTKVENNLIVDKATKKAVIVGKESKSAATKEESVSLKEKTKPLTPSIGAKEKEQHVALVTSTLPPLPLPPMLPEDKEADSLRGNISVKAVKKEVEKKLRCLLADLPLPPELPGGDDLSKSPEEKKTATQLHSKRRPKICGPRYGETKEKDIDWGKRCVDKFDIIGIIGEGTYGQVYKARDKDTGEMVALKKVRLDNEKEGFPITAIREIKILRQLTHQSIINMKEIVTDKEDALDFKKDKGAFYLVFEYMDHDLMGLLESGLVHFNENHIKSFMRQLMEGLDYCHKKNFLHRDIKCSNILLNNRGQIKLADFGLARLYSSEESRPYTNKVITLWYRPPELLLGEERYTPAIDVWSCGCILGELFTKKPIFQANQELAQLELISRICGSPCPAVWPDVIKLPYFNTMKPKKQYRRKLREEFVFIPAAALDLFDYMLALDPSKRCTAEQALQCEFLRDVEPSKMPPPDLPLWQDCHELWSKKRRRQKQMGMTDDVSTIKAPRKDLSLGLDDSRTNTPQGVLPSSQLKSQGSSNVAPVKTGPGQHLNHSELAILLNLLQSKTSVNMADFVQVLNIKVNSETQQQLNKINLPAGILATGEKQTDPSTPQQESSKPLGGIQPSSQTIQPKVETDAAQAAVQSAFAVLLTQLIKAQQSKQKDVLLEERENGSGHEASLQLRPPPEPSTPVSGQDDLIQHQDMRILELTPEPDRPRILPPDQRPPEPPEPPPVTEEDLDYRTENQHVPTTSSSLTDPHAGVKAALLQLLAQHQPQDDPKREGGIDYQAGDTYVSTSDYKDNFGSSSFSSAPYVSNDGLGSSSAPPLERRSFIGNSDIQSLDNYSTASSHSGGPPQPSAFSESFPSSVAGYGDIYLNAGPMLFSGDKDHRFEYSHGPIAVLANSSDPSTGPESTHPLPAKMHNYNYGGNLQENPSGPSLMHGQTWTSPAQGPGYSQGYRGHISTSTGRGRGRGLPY", "sequence (O75909 whole entry, further chain)": "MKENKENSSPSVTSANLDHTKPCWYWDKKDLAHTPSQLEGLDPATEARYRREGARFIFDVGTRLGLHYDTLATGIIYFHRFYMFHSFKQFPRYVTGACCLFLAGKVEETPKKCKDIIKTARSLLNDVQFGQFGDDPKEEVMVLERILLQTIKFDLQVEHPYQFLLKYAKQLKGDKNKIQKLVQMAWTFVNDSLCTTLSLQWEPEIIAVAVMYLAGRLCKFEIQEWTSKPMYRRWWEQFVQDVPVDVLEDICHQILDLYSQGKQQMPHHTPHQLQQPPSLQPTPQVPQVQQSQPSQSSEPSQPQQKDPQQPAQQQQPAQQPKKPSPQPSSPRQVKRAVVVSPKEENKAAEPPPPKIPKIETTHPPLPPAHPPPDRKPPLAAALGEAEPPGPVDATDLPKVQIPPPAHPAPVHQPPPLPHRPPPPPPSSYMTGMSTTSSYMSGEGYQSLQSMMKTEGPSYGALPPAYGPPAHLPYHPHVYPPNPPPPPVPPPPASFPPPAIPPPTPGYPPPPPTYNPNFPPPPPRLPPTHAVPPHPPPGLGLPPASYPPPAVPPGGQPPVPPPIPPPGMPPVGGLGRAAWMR", "assay": "Inhibition of CDK13/Cyclin K (unknown origin) using pS7-CTD peptide and ATP as substrate incubated for 120 mins by ADP-Glo reagent based luminescence analysis", "assay_type": "protein-complex assay"}, "[12]": {"system": "HCT-116", "assay": "Antiproliferative activity against PARG KO human HCT-116 cells assessed as reduction in cell viability incubated for 7 days by CellTiter-Glo reagent based luminescence analysis", "assay_type": "functional", "conditions": "HCT-116, 168 h"}, "[13]": {"assay": "Cmax in Sprague-Dawley rat at 5 mg/kg, po measured for 24 hrs by LC-MS/MS analysis", "assay_type": "ADME, organism-based", "conditions": "in vivo"}, "[14]": {"system": "Ramos", "assay": "Antiproliferative activity against human Ramos cells assessed as reduction in cell viability incubated for 7 days by CellTiter-Glo reagent based luminescence analysis", "assay_type": "functional", "conditions": "168 h"}, "[15]": {"assay": "Toxicity against female Sprague-Dawley rat assessed as decrease in thymus volume at 7.5 to 30 mg/kg, po administered once daily via gavage for 28 days and measured on day 29", "assay_type": "organism-based", "conditions": "in vivo, 696 h, dose 7.5-30 mg/kg, time 29 day"}, "[16]": {"assay": "Toxicity against female Sprague-Dawley rat assessed as effect on AST level in blood at 7.5 to 30 mg/kg, po administered once daily via gavage for 28 days and measured on day 29", "assay_type": "organism-based", "conditions": "in vivo, 696 h, dose 7.5-30 mg/kg, time 29 day"}, "[17]": {"system": "SW-403", "assay": "Antiproliferative activity against human SW403 cells assessed as reduction in cell viability incubated for 7 days by CellTiter-Glo reagent based luminescence analysis", "assay_type": "functional", "conditions": "SW-403, 168 h"}, "[18]": {"system": "SW1417", "assay": "Antiproliferative activity against human SW1417 cells assessed as reduction in cell viability incubated for 7 days by CellTiter-Glo reagent based luminescence analysis", "assay_type": "functional", "conditions": "SW1417, 168 h"}, "[19]": {"assay": "Cmax in female Sprague-Dawley rat at 15 mg/kg, po administered via gavage and measured on day 1", "assay_type": "ADME, organism-based", "conditions": "in vivo, time 1 day"}, "[20]": {"assay": "Half life in female Sprague-Dawley rat at 7.5 mg/kg, po administered via gavage and measured on day 1", "assay_type": "ADME, organism-based", "conditions": "in vivo, time 1 day"}, "[21]": {"system": "SUM149PT", "assay": "Antiproliferative activity against human SUM149PT cells assessed as inhibition of cell growth incubated for 7 days by CellTiter-Glo reagent based luminescence analysis", "assay_type": "functional", "conditions": "168 h"}, "[22]": {"assay": "Toxicity against female Sprague-Dawley rat assessed as effect on mean corpuscular hemoglobin at 7.5 to 30 mg/kg, po administered once daily via gavage for 28 days and measured on day 29", "assay_type": "organism-based", "conditions": "in vivo, 696 h, dose 7.5-30 mg/kg, time 29 day"}, "[23]": {"assay": "AUC (0 to infinity) in Sprague-Dawley rat at 1 mg/kg, iv by LC-MS/MS analysis", "assay_type": "ADME, organism-based", "conditions": "in vivo"}, "[24]": {"assay": "AUC in Balb/c mouse xenografted with human SUM149PT cells at 60 mg/kg, po administered once daily via gavage", "assay_type": "ADME, organism-based", "conditions": "in vivo"}, "[25]": {"assay": "Half-life of the compound in human Plasma", "assay_type": "ADME, cell-free"}, "[26]": {"assay": "Cmax in Sprague-Dawley rat at 1 mg/kg, iv measured for 24 hrs by LC-MS/MS analysis", "assay_type": "ADME, organism-based", "conditions": "in vivo"}, "[27]": {"assay": "AUC (0 to infinity) in Sprague-Dawley rat at 150 mg/kg, po by LC-MS/MS analysis", "assay_type": "ADME, organism-based", "conditions": "in vivo"}, "[28]": {"assay": "Protein binding in human plasma assessed as free fraction at 400 uM incubated for 4 hrs by equilibrium dialysis method based LC-MS/MS analysis", "assay_type": "ADME, cell-free"}, "[29]": {"assay": "Cmax in male Sprague-Dawley rat at 10 mg/kg, po administered via gavage and measured on day 1", "assay_type": "ADME, organism-based", "conditions": "in vivo, time 1 day"}, "[30]": {"assay": "Toxicity against male Sprague-Dawley rat assessed as effect on monocytes level at 10 to 40 mg/kg, po administered once daily via gavage for 28 days and measured on day 29", "assay_type": "organism-based", "conditions": "in vivo, 696 h, dose 10-40 mg/kg, time 29 day"}, "[31]": {"assay": "Half life in male Sprague-Dawley rat at 20 mg/kg, po administered via gavage and measured on day 1", "assay_type": "ADME, organism-based", "conditions": "in vivo"}, "[32]": {"assay": "Protein binding in mouse plasma assessed as free fraction at 400 uM incubated for 4 hrs by equilibrium dialysis method based LC-MS/MS analysis", "assay_type": "ADME, cell-free"}, "[33]": {"assay": "Toxicity against female Sprague-Dawley rat assessed as body weight loss at 30 mg/kg, po administered once daily via gavage for 28 days and measured twice a week", "assay_type": "organism-based", "conditions": "in vivo, 672 h, time 28 day"}, "[34]": {"assay": "AUC(0 to t) in male Sprague-Dawley rat at 20 mg/kg, po administered once daily via gavage for 28 days", "assay_type": "ADME, organism-based", "conditions": "in vivo, 672 h, time 28 day"}, "[35]": {"assay": "Half life in Sprague-Dawley rat at 150 mg/kg, po measured for 24 hrs by LC-MS/MS analysis", "assay_type": "ADME, organism-based", "conditions": "in vivo"}, "[36]": {"assay": "Half life in female Sprague-Dawley rat at 15 mg/kg, po administered via gavage and measured on day 1", "assay_type": "ADME, organism-based", "conditions": "in vivo, time 1 day"}, "[37]": {"system": "Mus musculus", "assay": "In vivo inhibition of CDK12/13 in Balb/c mouse xenografted with human SUM149PT cells assessed as reduction in ATM gene expression at 15 to 30 mg/kg, po administered once daily via gavage and measured at 4 hrs post-last drug dosage by qPCR analysis", "assay_type": "functional, organism-based", "conditions": "dose 15-30 mg/kg"}, "[38]": {"target": "Cyclin-dependent kinase 12/13 (Homo sapiens) (UniProt Q14004+Q9NYV4)", "assay": "Inhibition of CDK12/13 in human SUM149PT cells assessed as reduction in ATM gene expression at 500 nM incubated for 8 to 24 hrs by qPCR analysis", "assay_type": "cell-based", "conditions": "time lower 8.0 hrs, time upper […]"}, "[39]": {"assay": "Toxicity against male Sprague-Dawley rat assessed as effect on hematocrit level at 10 to 40 mg/kg, po administered once daily via gavage for 28 days and measured on day 29", "assay_type": "organism-based", "conditions": "in vivo, 696 h, dose 10-40 mg/kg, time 29 day"}}, "note": "Activity calls are given as the source filed them. The rule behind the calls is not given here.", "data": [{"smiles": "C=CC(=O)N1CCc2c(ncnc2N2CC[C@@H](Nc3ncc(Cl)c(OC)n3)C2)C1", "values": [{"measurement": "t1/2", "setting": "[1]", "value": 1.35, "unit": "h"}, {"measurement": "Cmax", "setting": "[2]", "value": 793, "unit": "ng/mL"}, {"measurement": "Activity", "setting": "[3]", "value": "Non-toxic"}, {"measurement": "Kp at 2 h", "setting": "[4]", "value": 0.38}, {"measurement": "IC50", "setting": "[5]", "value": 87, "unit": "nM"}, {"measurement": "AUCt", "setting": "[6]", "value": 3220, "unit": "ng·h/mL"}, {"measurement": "Activity", "setting": "[7]", "value": "Non-toxic"}, {"measurement": "Activity", "setting": "[8]", "value": "Active"}, {"measurement": "Activity", "setting": "[9]", "value": "Toxic"}, {"measurement": "Cmax", "setting": "[10]", "value": 800, "unit": "ng/mL"}, {"measurement": "IC50", "setting": "[11]", "value": 79.4, "unit": "nM"}, {"measurement": "IC50", "setting": "[12]", "value": 123, "unit": "nM"}, {"measurement": "Cmax", "setting": "[13]", "value": 808, "unit": "ng/mL"}, {"measurement": "IC50", "setting": "[14]", "value": 101, "unit": "nM"}, {"measurement": "Activity", "setting": "[15]", "value": "Toxic"}, {"measurement": "Activity", "setting": "[16]", "value": "Non-toxic"}, {"measurement": "IC50", "setting": "[17]", "value": 135, "unit": "nM"}, {"measurement": "IC50", "setting": "[18]", "value": 137, "unit": "nM"}, {"measurement": "Cmax", "setting": "[19]", "value": 1280, "unit": "ng/mL"}, {"measurement": "half-life", "setting": "[20]", "value": 2, "unit": "h"}, {"measurement": "IC50", "setting": "[21]", "value": 160, "unit": "nM"}, {"measurement": "Activity", "setting": "[22]", "value": "Non-toxic"}, {"measurement": "AUC(0-inf)", "setting": "[23]", "value": 270, "unit": "ng·h/mL"}, {"measurement": "AUC", "setting": "[24]", "value": 4620, "unit": "ng·h/mL"}, {"measurement": "half-life", "setting": "[25]", "value": "> 4.82", "unit": "h"}, {"measurement": "Cmax", "setting": "[26]", "value": 830, "unit": "ng/mL"}, {"measurement": "AUC(0-inf)", "setting": "[27]", "value": 31200, "unit": "ng·h/mL"}, {"measurement": "fraction unbound at 4 h, 400 µM", "setting": "[28]", "value": 0.127}, {"measurement": "Cmax", "setting": "[29]", "value": 460, "unit": "ng/mL"}, {"measurement": "Activity", "setting": "[30]", "value": "Non-toxic"}, {"measurement": "half-life", "setting": "[31]", "value": 4.1, "unit": "h"}, {"measurement": "fraction unbound at 4 h, 400 µM", "setting": "[32]", "value": 0.075}, {"measurement": "Activity", "setting": "[33]", "value": "Toxic"}, {"measurement": "AUCt", "setting": "[34]", "value": 2870, "unit": "ng·h/mL"}, {"measurement": "half-life", "setting": "[35]", "value": 21.2, "unit": "h"}, {"measurement": "half-life", "setting": "[36]", "value": 3.7, "unit": "h"}, {"measurement": "inhibition", "setting": "[37]", "value": "Active"}, {"measurement": "inhibition", "setting": "[38]", "value": "Active"}, {"measurement": "Activity", "setting": "[39]", "value": "Non-toxic"}]}]}
